Measurements: article PMC3251870 (British Journal of Cancer, 2011)

What was measured:
H1993 cells = assay: MTS cell viability, H1993; format: cell-based, human; settings: H1993 NSCLC, MTS, 4 days
Description: (§1) All human cancer cell lines were maintained in RPMI media supplemented with 5% (lung and breast cancer cells) or 10% (melanoma cells) fetal bovine serum. […] Human mammary epithelial cells immortalised with telomerase were maintained in complete MEGM media from Cambrex (East Rutherford, NJ, USA).
(§2) Absorbance at 490 and 650 nm (reference wavelength) was measured by a Spectra Max (Molecular Devices, Sunnyvale, CA, USA) or a FlouroStar Omega (BMG Biosciences, Ortenberg, Germany) plate reader. Data were normalised to the untreated controls (100% viability). Each cell line was tested in 1–5 independent assays, each containing 4–8 replicates. IC50 values were calculated using DIVISA, a high-throughput software, developed in-house (manuscript in preparation), for storing and analysing drug sensitivity assays. Dose–response curves were plotted using a non-linear regression model and IC50s were determined from the fitted curves.

SKMEL5 melanoma cells = assay: MTS cell viability, SKMEL5; format: cell-based, human; settings: 4 days
Description: as §1, §2

UACC62 melanoma cells = assay: MTS cell viability, UACC62; format: cell-based, human; settings: 4 days
Description: as §1, §2

[1] = test system: histone 3 acetylation in H358 cells; assay: Western blot, acetylated histone 3; format: cell-based, human; settings: 24 h
Description: (§3) Exponentially growing cells were treated with the appropriate compounds and harvested 4 or 24 h later in a standard nuclear lysis buffer and whole cell lysates were quantified. Equal amounts of total protein were loaded onto 4–12% Bis-Tris SDS gels and subjected to electrophoresis. After transferring onto nitrocellulose membranes, blots were probed for acetylated tubulin (Sigma, St Louis, MO, USA; T6793), acetylated histone 3 (Millipore/Upstate #06-599), acetylated histone 4 (Millipore/Upstate #07-329) or trimethylated histone 3 at lysine 9 (Millipore/Upstate #07-523). Actin (Santa Cruz, Santa Cruz, CA, USA; #1616) and HDAC1 (Affinity Bioreagents, Rockford, IL, USA; #PA1-860) were probed as loading controls. Quantification of bands in films was performed using two independent methods, which yielded similar results, Image J (NIH public software) and Quantity one (Bio-Rad, Hercules, CA, USA). The average of the two methods±s.e.m. is shown as specified in figure legends. For the MDR western analysis, a primary antibody against P-glycoprotein from Calbiochem (Darmstadt, Germany) was used according to the manufacturer's recommendations and HSP90 (Santa Cruz) was used as a loading control.

MCF-10 cells = assay: MTS cell viability, MCF-10; format: cell-based, human; settings: MCF-10, MTS, 4 days
Description: as §1, §2

HCC1500 cells = assay: MTS cell viability, HCC1500; format: cell-based, human; settings: HCC1500 breast cancer line, 4 days
Description: as §1, §2

[2] = test system: HCC4017 lung cancer cells; assay: MTS cell viability, HCC4017; format: cell-based, human; settings: HCC4017 (lung cancer, matched to HBEC30KT), MTS, 4 days
Description: as §1, §2

H2086 cells = assay: MTS cell viability, H2086; format: cell-based, human; settings: H2086 NSCLC, 4 days
Description: as §1, §2

H2085 cells = assay: MTS cell viability, H2085; format: cell-based, human; settings: H2085 NSCLC, 4 days
Description: as §1, §2

[3] = test system: total HDAC activity, C127 cell extracts; assay: Total HDAC activity in cell extracts treated in vitro; format: biochemical
Description: HDAC2 was purified as described below.

[4] = test system: 1585T immortalised normal human mammary epithelial cells; assay: MTS cell viability, 1585T; format: cell-based; settings: 4 days
Description: as §1, §2

SKMEL28 melanoma cells = assay: MTS cell viability, SKMEL28; format: cell-based, human; settings: 4 days
Description: as §1, §2

UACC257 melanoma cells = assay: MTS cell viability, UACC257; format: cell-based, human; settings: 4 days
Description: as §1, §2

HCC15 cells = assay: MTS cell viability, HCC15; format: cell-based, human; settings: HCC15 NSCLC, MTS, 4 days
Description: as §1, §2

LOXIMVI melanoma cells = assay: MTS cell viability, LOXIMVI; format: cell-based, human; settings: LOXIMVI melanoma, 4 days
Description: as §1, §2

HCC1954 cells = assay: MTS cell viability, HCC1954; format: cell-based, human; settings: HCC1954 breast cancer line, 4 days
Description: as §1, §2

[5] = test system: HBEC15KT human bronchial epithelial cells; assay: MTS cell viability, HBEC15KT; format: cell-based; settings: 4 days
Description: as §1, §2

H1395 cells = assay: MTS cell viability, H1395; format: cell-based, human; settings: H1395 NSCLC, 4 days
Description: as §1, §2

H2009 cells = assay: MTS cell viability, H2009; format: cell-based, human; settings: H2009 NSCLC, 4 days
Description: as §1, §2

HCC366 cells = assay: MTS cell viability, HCC366; format: cell-based, human; settings: HCC366 NSCLC, 4 days
Description: as §1, §2

H1299 cells = assay: MTS cell viability, H1299; format: cell-based, human; settings: H1299 NSCLC, 4 days
Description: as §1, §2

H1355 cells = assay: MTS cell viability, H1355; format: cell-based, human; settings: H1355 NSCLC, 4 days
Description: as §1, §2

SKMEL2 melanoma cells = assay: MTS cell viability, SKMEL2; format: cell-based, human; settings: SKMEL2 melanoma, MTS, 4 days
Description: as §1, §2

[6] = test system: histone 4 acetylation in H358 cells; assay: Western blot, acetylated histone 4; format: cell-based, human; settings: 4 h
Description: as §3

Melanocytes = assay: MTS cell viability, primary melanocytes; format: cell-based, human; settings: 4 days
Description: as §1, §2

M14 melanoma cells = assay: MTS cell viability, M14; format: cell-based, human; settings: 4 days
Description: as §1, §2

HCC1806 cells = assay: MTS cell viability, HCC1806; format: cell-based, human; settings: HCC1806 breast cancer line, 4 days
Description: as §1, §2

MALME3M melanoma cells = assay: MTS cell viability, MALME3M; format: cell-based, human; settings: 4 days
Description: as §1, §2

[7] = test system: HCC4018 lung cancer cells; assay: MTS cell viability, HCC4018; format: cell-based, human; settings: HCC4018 (lung cancer, matched to HBEC34KT), MTS, 4 days
Description: as §1, §2

[8] = test system: HBEC34KT human bronchial epithelial cells; assay: MTS cell viability, HBEC34KT; format: cell-based; settings: HBEC34KT (normal, matched to HCC4018), 4 days
Description: as §1, §2

[9] = test system: HBEC3KT human bronchial epithelial cells; assay: MTS cell viability, HBEC3KT; format: cell-based; settings: 4 days
Description: as §1, §2

[10] = test system: OCM3 uveal melanoma cells; assay: MTS cell viability, OCM3; format: cell-based, human; settings: 4 days
Description: as §1, §2

H358 cells = assay: MTS cell viability, H358; format: cell-based, human; settings: H358 NSCLC, 4 days
Description: as §1, §2

SMILES	IC50 (H1993 cells) [nM]	IC50 (SKMEL5 melanoma cells) [nM]	IC50 (UACC62 melanoma cells) [nM]	IC50 (MCF-10 cells) [nM]	IC50 (HCC1500 cells) [nM]	IC50 [2] [nM]	IC50 (H2086 cells) [nM]	IC50 (H2085 cells) [nM]	IC50 [4] [nM]	IC50 (SKMEL28 melanoma cells) [nM]	IC50 (UACC257 melanoma cells) [nM]	IC50 (HCC15 cells) [nM]	IC50 (LOXIMVI melanoma cells) [nM]	IC50 (HCC1954 cells) [nM]	IC50 [5] [nM]	IC50 (H1395 cells) [nM]	IC50 (H2009 cells) [nM]	IC50 (HCC366 cells) [nM]	IC50 (H1299 cells) [nM]	IC50 (H1355 cells) [nM]	further results
CC(/C=C/C(=O)NO)=C\[C@@H](C)C(=O)c1ccc(N(C)C)cc1 [TSA, trichostatin A]	93.5	66	238	96	29	73	275	390	124	400	222	7.9	57	91	295	41	38.3	147	150	107	global level of histone 3 acetylation ([1]; 200 nM): globally increased; inhibition of total HDAC activity in cell extracts treated in vitro ([3]; 150 nM): blocked; IC50 (SKMEL2 melanoma cells): 336 nM; global level of histone 4 acetylation ([6]; 200 nM): globally increased; IC50 (Melanocytes): 284 nM; IC50 (M14 melanoma cells): 98 nM; IC50 (HCC1806 cells): 41 nM; IC50 (MALME3M melanoma cells): 240 nM; IC50 [7]: 23 nM; IC50 [8]: 346 nM; IC50 [9]: 318 nM; IC50 [10]: 220 nM; IC50 (H358 cells): 40 nM
C/C=C1\NC(=O)[C@H]2CSSCC/C=C/[C@H](CC(=O)N[C@H](C(C)C)C(=O)N2)OC(=O)[C@H](C(C)C)NC1=O [Depsipeptide, depsipeptide]	1.2	1.5	0.9	2.4	1.5	6.5	3.8	6.9	1.3	0.8	1.6	6.4	1.2	1.5	2.5	5.3	0.9	3.1	12.1	1.8	global level of histone 3 acetylation ([1]; 25 nM): globally increased; inhibition of total HDAC activity in cell extracts treated in vitro ([3]; 20 nM): partly inhibited; IC50 (SKMEL2 melanoma cells): 0.4 nM; global level of histone 4 acetylation ([6]; 25 nM): globally increased; IC50 (Melanocytes): 0.9 nM; IC50 (M14 melanoma cells): 2.4 nM; IC50 (HCC1806 cells): 1.8 nM; IC50 (MALME3M melanoma cells): 0.7 nM; IC50 [7]: 4.2 nM; IC50 [8]: 1.3 nM; IC50 [9]: 1 nM; IC50 [10]: 1.5 nM; IC50 (H358 cells): 1.1 nM
